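Growth conditions: 96-well plates. Treatment: test compound, 48 hours, 5 concentrations. Analysis: linear interpolation between bracketing concentrations; unreached endpoints set to highest concentration. Here, GI50 denotes the concentration required for 50% inhibition of growth.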 Activity calls are given as the source filed them. No stated cut-off is given here; in the data, active = GI50 up to about 1.1 µM and inactive = higher.
Experiments:
Test in all cases: NCI tumour cell line growth inhibition, 48 h
[1] = tested on: SF-539
[2] = tested on: HCC 2998
[3] = tested on: SW-620
[4] = tested on: OVCAR-3
[5] = tested on: EKVX
[6] = tested on: MDA-MB-231
[7] = tested on: COLO 205
[8] = tested on: UACC-62
[9] = tested on: RPMI-8226
[10] = tested on: MDA-MB-435
[11] = tested on: A549
[12] = tested on: LOX IMVI
[13] = tested on: CCRF-CEM
[14] = tested on: OVCAR-4
[15] = tested on: KM12
[16] = tested on: SF-295
[17] = tested on: UACC-257
[18] = tested on: HOP-62
[19] = tested on: A498
[20] = tested on: K562

Structure (SMILES)	GI50 [1]	GI50 [2]	GI50 [3]	GI50 [4]	GI50 [5]	GI50 [6]	GI50 [7]	GI50 [8]	GI50 [9]	GI50 [10]	GI50 [11]	GI50 [12]	GI50 [13]	GI50 [14]	GI50 [15]	GI50 [16]	GI50 [17]	GI50 [18]	GI50 [19]	GI50 [20]
CCOC1=NC(C(F)(F)F)(C(F)(F)F)N=C(N2CCOCC2)O1	> 100 µM (inactive)	> 100 µM (inactive)	> 100 µM (inactive)	> 100 µM (inactive)	> 100 µM (inactive)	> 100 µM (inactive)	> 100 µM (inactive)	24 µM (inactive)	> 100 µM (inactive)	> 100 µM (inactive)	> 100 µM (inactive)	> 100 µM (inactive)	> 100 µM (inactive)	> 100 µM (inactive)	> 100 µM (inactive)	> 100 µM (inactive)	> 100 µM (inactive)			
S=C1N(c2ccc(Cl)cc2)C2=C(/N=N/c3ccccc3)C(=Nc3ccccc3S2)N1c1ccccn1	16.6 µM (inactive)	17.4 µM (inactive)	16.4 µM (inactive)	14.2 µM (inactive)	12.2 µM (inactive)	12.8 µM (inactive)	12.6 µM (inactive)		17.7 µM (inactive)	13.5 µM (inactive)	13.6 µM (inactive)	10.4 µM (inactive)	5.36 µM (inactive)		11.6 µM (inactive)	15.7 µM (inactive)	15.8 µM (inactive)	19.4 µM (inactive)	< 0.01 µM (active)	
C=C1C(=O)O[C@H]2C(=O)[C@H](C)CCC[C@@](C)(O)/C=C\C[C@@]3(C)O[C@@H]3C[C@@H]12	19.3 µM (inactive)		8 µM (inactive)	11.2 µM (inactive)		21.7 µM (inactive)	16.2 µM (inactive)	18.4 µM (inactive)	17 µM (inactive)	18.5 µM (inactive)	19 µM (inactive)	15.8 µM (inactive)	2.67 µM (inactive)		22.2 µM (inactive)	5.28 µM (inactive)	14.1 µM (inactive)		16.1 µM (inactive)	
Cc1cc(Cc2c(C)c(C)c(Cc3cc(C)cc(C(C)(C)C)c3O)c(C)c2C)c(O)c(C(C)(C)C)c1	> 100 µM (inactive)		> 100 µM (inactive)	> 100 µM (inactive)	> 100 µM (inactive)	> 100 µM (inactive)	> 100 µM (inactive)	> 100 µM (inactive)	> 100 µM (inactive)	> 100 µM (inactive)	> 100 µM (inactive)	> 100 µM (inactive)		> 100 µM (inactive)	> 100 µM (inactive)	> 100 µM (inactive)	> 100 µM (inactive)	> 100 µM (inactive)	> 100 µM (inactive)	> 100 µM (inactive)
COP(=O)(O)C(N)Cc1c[nH]c2ccccc12 (centres undefined)		> 100 µM (inactive)	> 100 µM (inactive)	> 100 µM (inactive)		> 100 µM (inactive)	> 100 µM (inactive)		> 100 µM (inactive)	> 100 µM (inactive)	> 100 µM (inactive)	> 100 µM (inactive)	> 100 µM (inactive)	> 100 µM (inactive)		> 100 µM (inactive)	> 100 µM (inactive)	> 100 µM (inactive)	> 100 µM (inactive)	> 100 µM (inactive)
ClC1=C(Cc2ccccc2)Cc2ccc3c(c21)CCC3	74.3 µM (inactive)	20 µM (inactive)	25.7 µM (inactive)	36.4 µM (inactive)	39.3 µM (inactive)	21.8 µM (inactive)	13.4 µM (inactive)	27.6 µM (inactive)	29.4 µM (inactive)	28 µM (inactive)	33.6 µM (inactive)	17.9 µM (inactive)	27.9 µM (inactive)	9.23 µM (inactive)	18.3 µM (inactive)	29.4 µM (inactive)	23.1 µM (inactive)	34.1 µM (inactive)		31.1 µM (inactive)
COC(=O)c1cc(OS(=O)(=O)C(F)(F)F)c(=O)n2c1CCCC2	> 100 µM (inactive)		> 100 µM (inactive)		> 100 µM (inactive)	> 100 µM (inactive)	> 100 µM (inactive)	86.3 µM (inactive)		> 100 µM (inactive)	> 100 µM (inactive)	> 100 µM (inactive)	> 100 µM (inactive)	> 100 µM (inactive)	> 100 µM (inactive)	> 100 µM (inactive)	> 100 µM (inactive)	> 100 µM (inactive)	> 100 µM (inactive)	
CC(=O)C1(c2ccccc2)CCCN(C)CC1 (centres undefined)		> 100 µM (inactive)	> 100 µM (inactive)	> 100 µM (inactive)		> 100 µM (inactive)	> 100 µM (inactive)	> 100 µM (inactive)	> 100 µM (inactive)	> 100 µM (inactive)		> 100 µM (inactive)	> 100 µM (inactive)	> 100 µM (inactive)	> 100 µM (inactive)	> 100 µM (inactive)	> 100 µM (inactive)	> 100 µM (inactive)	> 100 µM (inactive)	
CCC(C)NC1=NCC(C)S1 (centres undefined)	> 100 µM (inactive)	> 100 µM (inactive)	> 100 µM (inactive)	> 100 µM (inactive)	> 100 µM (inactive)	> 100 µM (inactive)	> 100 µM (inactive)	> 100 µM (inactive)	> 100 µM (inactive)	> 100 µM (inactive)	> 100 µM (inactive)	> 100 µM (inactive)	> 100 µM (inactive)		> 100 µM (inactive)	> 100 µM (inactive)	> 100 µM (inactive)	> 100 µM (inactive)	> 100 µM (inactive)	> 100 µM (inactive)
O=C(/C=C/c1ccc2c(c1)OCO2)Cc1nc2ccccc2[nH]c1=O	75 µM (inactive)	26.5 µM (inactive)	30.4 µM (inactive)	27.3 µM (inactive)	31.9 µM (inactive)	20.2 µM (inactive)	52.6 µM (inactive)	6.76 µM (inactive)	28.1 µM (inactive)	20 µM (inactive)	23.4 µM (inactive)	3.52 µM (inactive)	35.8 µM (inactive)		18.9 µM (inactive)	17.4 µM (inactive)	25.4 µM (inactive)	17.5 µM (inactive)	20.3 µM (inactive)	5.3 µM (inactive)
COc1ccccc1N1CCN(CCCN2C(C(=O)c3ccccc3)=C(O)c3c(C)cc(C)nc3S2(=O)=O)CC1	> 100 µM (inactive)		89.7 µM (inactive)	55 µM (inactive)	37 µM (inactive)	> 100 µM (inactive)	64 µM (inactive)	> 100 µM (inactive)		> 100 µM (inactive)	47.2 µM (inactive)	13.4 µM (inactive)	52.5 µM (inactive)	73.3 µM (inactive)	> 100 µM (inactive)	35.7 µM (inactive)	74.1 µM (inactive)	77.8 µM (inactive)	> 100 µM (inactive)	56.5 µM (inactive)
CC1=NC(C)(C)[N+]([O-])=C1	> 10 µM (inactive)	> 10 µM (inactive)	> 10 µM (inactive)	> 10 µM (inactive)	> 10 µM (inactive)	> 10 µM (inactive)	> 10 µM (inactive)	> 10 µM (inactive)	> 10 µM (inactive)	> 10 µM (inactive)	> 10 µM (inactive)	> 10 µM (inactive)	> 10 µM (inactive)		> 10 µM (inactive)	> 10 µM (inactive)	> 10 µM (inactive)	> 10 µM (inactive)	> 10 µM (inactive)	> 10 µM (inactive)
OC1CN2CCS[C@H]2C(O)C1O (some centres undefined)		> 100 µM (inactive)	> 100 µM (inactive)	> 100 µM (inactive)	> 100 µM (inactive)	> 100 µM (inactive)	> 100 µM (inactive)	> 100 µM (inactive)	> 100 µM (inactive)	> 100 µM (inactive)	> 100 µM (inactive)	> 100 µM (inactive)	> 100 µM (inactive)	> 100 µM (inactive)	> 100 µM (inactive)	> 100 µM (inactive)	> 100 µM (inactive)	> 100 µM (inactive)	> 100 µM (inactive)	> 100 µM (inactive)
COP(=O)(OC)/C(=C\C1=CN(C(c2ccccc2)(c2ccccc2)c2ccccc2)CN1)NC=O		21.1 µM (inactive)	20.4 µM (inactive)	16.1 µM (inactive)		16.8 µM (inactive)	17.3 µM (inactive)		15.7 µM (inactive)	11.1 µM (inactive)	14.2 µM (inactive)	12.8 µM (inactive)		16.3 µM (inactive)		16.4 µM (inactive)	18.9 µM (inactive)	16.5 µM (inactive)	17.9 µM (inactive)	25.3 µM (inactive)
Cc1sc2nc(-c3cccc([N+](=O)[O-])c3)c(/C=N/N=C(N)N)n2c1C	1.95 µM (inactive)	1.32 µM (inactive)	1.75 µM (inactive)	1.82 µM (inactive)	1.67 µM (inactive)	1.75 µM (inactive)	1.83 µM (inactive)	1.75 µM (inactive)	1.96 µM (inactive)	1.79 µM (inactive)	1.66 µM (inactive)	1.77 µM (inactive)	1.74 µM (inactive)		1.71 µM (inactive)	1.54 µM (inactive)	1.67 µM (inactive)	1.72 µM (inactive)	1.55 µM (inactive)	1.69 µM (inactive)
O=C1Oc2ccccc2N/C1=C/C(=O)c1ccc([N+](=O)[O-])cc1	> 100 µM (inactive)	> 100 µM (inactive)		> 100 µM (inactive)	> 100 µM (inactive)	> 100 µM (inactive)	> 100 µM (inactive)	45.8 µM (inactive)		> 100 µM (inactive)	> 100 µM (inactive)		61 µM (inactive)	> 100 µM (inactive)	> 100 µM (inactive)	> 100 µM (inactive)	> 100 µM (inactive)	> 100 µM (inactive)	> 100 µM (inactive)	> 100 µM (inactive)

— ChEMBL document CHEMBL1201862, “PubChem BioAssay data set” (2004)
